Holding throughout (assay type): cell-based
The test system of one test is DU-145. As to the kind of experiment: Cell growth inhibition assay, prostate cancer cell line DU-145. The conditions noted are these: Homo sapiens, DU-145 prostate cancer cell line. The method in brief: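 Luminescent CellTiter-Glo readout of viable cells after 72–96 h compound exposure (37° C., 5% CO2). Seeding: 3,000 cells/well for DU-145 and HCT116, 5,000 cells/well for SW626. Controls were medium without cells and 0.1% DMSO vehicle.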

The target of the next test is T1, STAT3 (Homo sapiens, UniProt P40763).
T1 construct: plasmid pSTAT3-TA-luc), which contains a stably operating STAT3 promoter; endogenous in cells
As to the kind of experiment: STAT3 reporter gene assay (luciferase), LNCaP stable cell line (pSTAT3-TA-luc), IL-6 stimulation. The method in brief: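 LNCaP cells stably carrying pSTAT3-TA-luc, in RPMI1640 with 3% DCC-FBS, were treated with compound and then stimulated with 10 ng/mL IL-6 for 24–48 h at 37 °C. Luciferase activity was measured in lysates. A parallel plate measured viability by CellTiter-Glo, with stimulated 0.1% DMSO wells as the positive control.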
A general note: Reporter assays use an easily measured gene product as a stand-in for the process of interest.

The test system of the next test is LNCaP. As to the kind of experiment: Cell growth inhibition assay, prostate cancer cell line LNCaP (medium with 10 ng/mL IL-6). To be noted: Homo sapiens, medium supplemented with 10 ng/mL of IL-6, 10,000 cells/well.

T1 sequence (P40763 whole entry): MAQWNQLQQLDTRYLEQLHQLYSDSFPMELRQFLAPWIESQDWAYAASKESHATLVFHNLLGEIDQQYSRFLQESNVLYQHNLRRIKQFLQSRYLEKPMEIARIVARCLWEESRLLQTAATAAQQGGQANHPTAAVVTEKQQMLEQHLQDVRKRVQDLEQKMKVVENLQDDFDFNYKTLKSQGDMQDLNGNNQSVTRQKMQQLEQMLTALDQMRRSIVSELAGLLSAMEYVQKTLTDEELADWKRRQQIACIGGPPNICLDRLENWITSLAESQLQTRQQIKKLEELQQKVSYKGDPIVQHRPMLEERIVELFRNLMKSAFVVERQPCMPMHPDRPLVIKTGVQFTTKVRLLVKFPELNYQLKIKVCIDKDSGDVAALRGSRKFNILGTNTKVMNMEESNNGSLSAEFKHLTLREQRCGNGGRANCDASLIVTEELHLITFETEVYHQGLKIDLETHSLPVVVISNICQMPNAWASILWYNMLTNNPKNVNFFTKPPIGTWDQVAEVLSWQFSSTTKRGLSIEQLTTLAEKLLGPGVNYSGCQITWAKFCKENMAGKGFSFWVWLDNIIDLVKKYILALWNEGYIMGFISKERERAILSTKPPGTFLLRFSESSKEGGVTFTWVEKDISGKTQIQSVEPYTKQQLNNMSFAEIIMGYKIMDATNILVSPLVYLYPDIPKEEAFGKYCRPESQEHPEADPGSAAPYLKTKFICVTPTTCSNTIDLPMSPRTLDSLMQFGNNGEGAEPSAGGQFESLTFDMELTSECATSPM

By IC50 is commonly meant the point on the concentration scale where inhibition reaches its midpoint. As to `CC(C)(c1cc(Cl)cc(NC(=O)c2cc3cc(NS(C)(=O)=O)c(Cl)cc3s2)c1)c1ccc(Cl)s1` [Example 175, 6-chloro-N-(3-chloro-5-(2-(5-chlorothiophen-2-yl)propan-2-yl)phenyl)-5-(methylsulfonamido)benzo[b]thiophene-2-carboxamide], the figures for the IC50 in the test with DU-145, against STAT3 and with LNCaP were 0.005 µM, 0.007 µM and 0.016 µM, respectively.

In the case of `COc1sccc1C(C)(C)c1cc(Cl)cc(NC(=O)c2cc3cc(NS(C)(=O)=O)ccc3s2)c1` [Example 176, N-(3-chloro-5-(2-(2-methoxythiophen-3-yl)propan-2-yl)phenyl)-5-(methylsulfonamido)benzo[b]thiophene-2-arboxamide], the IC50 in the test on DU-145 is 0.038 µM; against STAT3 it was 0.036 µM; in the test with LNCaP, 0.071 µM.

On to `COc1ccc(C(C)(C)c2cc(Cl)cc(NC(=O)c3cc4cc(NS(C)(=O)=O)ccc4s3)c2)s1` [Example 177, N-(3-chloro-5-(2-(5-methoxythiophen-2-yl)propan-2-yl)phenyl)-5-(methylsulfonamido)benzo[b]thiophene-2-carboxamide], for which the IC50 in the test with DU-145 came to 0.058 µM; against STAT3, 0.047 µM; in the test on LNCaP, 0.089 µM.

As to `Cc1ccc(C(C)(C)c2cc(Cl)cc(NC(=O)c3cc4cc(NS(C)(=O)=O)ccc4s3)c2)s1` [Example 178, N-(3-chloro-5-(2-(5-methylthiophen-2-yl)propan-2-yl)phenyl)-5-(methylsulfonamido)benzo[b]thiophene-2-carboxamide], the concentration for half-maximal inhibition (IC50) in the test with DU-145 amounted to 0.024 µM; on STAT3, 0.025 µM; with LNCaP, 0.042 µM.

As to `Cc1ccc(C(C)(C)c2cc(Cl)cc(NC(=O)c3cc4cc(NS(C)(=O)=O)c(Cl)cc4s3)c2)s1` [Example 179, 6-chloro-N-(3-chloro-5-(2-(5-methylthiophen-2-yl)propan-2-yl)phenyl)-5-(methylsulfonamido)benzo[b]thiophene-2-carboxamide], the concentration for half-maximal inhibition (IC50) in the test with DU-145 came out at 0.004 µM; against STAT3, 0.004 µM; in the test with LNCaP, 0.007 µM.

As to `CC(C)c1ccc(C(C)(C)c2cc(Cl)cc(NC(=O)c3cc4cc(NS(C)(=O)=O)c(Cl)cc4s3)c2)s1` [Example 180, 6-chloro-N-(3-chloro-5-(2-(5-isopropylthiophen-2-yl)propan-2-yl)phenyl)-5-(methylsulfonamido)benzo[b]thiophene-2-carboxamide], the IC50 in the test on DU-145 is under 0.005 µM; on STAT3 it was 0.01 µM; in the test on LNCaP it was under 0.005 µM.

As for `Cc1csc(C(C)(C)c2cc(Cl)cc(NC(=O)c3cc4cc(NS(C)(=O)=O)c(Cl)cc4s3)c2)c1` [Example 181, 6-chloro-N-(3-chloro-5-(2-(4-methylthiophen-2-yl)propan-2-yl)phenyl)-5-(methylsulfonamido)benzo[b]thiophene-2-carboxamide], the IC50 in the test on DU-145 was found to be 0.005 µM; against STAT3 it was 0.005 µM; with LNCaP it was 0.006 µM.

For `CC(C)(c1ccc(F)cc1)c1cc(Cl)cc(NC(=O)c2cc3cc(NS(C)(=O)=O)c(Cl)cc3s2)c1` [Example 182, 6-chloro-N-(3-chloro-5-(2-(4-fluorophenyl)propan-2-yl)phenyl)-5-(methylsulfonamido)benzo[b]thiophene-2-carboxamide], the IC50 in the test on DU-145 stood at 0.005 µM; at STAT3, 0.012 µM; with LNCaP, 0.018 µM.

As for `COc1ccc(C(C)(C)c2cc(Cl)cc(NC(=O)c3cc4cc(NS(C)(=O)=O)c(Cl)cc4s3)c2)cc1` [Example 183, 6-chloro-N-(3-chloro-5-(2-(4-methoxyphenyl)propan-2-yl)phenyl)-5-(methylsulfonamido)benzo[b]thiophene-2-carboxamide], the IC50 in the test with DU-145 worked out at 0.005 µM; against STAT3 it was 0.01 µM; with LNCaP, 0.013 µM.

Turning to `CC(C)(c1ccc(Cl)cc1)c1cc(Cl)cc(NC(=O)c2cc3cc(Cl)c(NS(C)(=O)=O)cc3s2)c1` [Example 184, 5-chloro-N-(3-chloro-5-(2-(4-chlorophenyl)propan-2-yl)phenyl)-6-(methylsulfonamido)benzo[b]thiophene-2-carboxamide], the half-inhibitory concentration (IC50) was 0.04 µM with DU-145, 0.042 µM on STAT3 and 0.35 µM in the test with LNCaP.

Regarding `COCCS(=O)(=O)Nc1cc2cc(C(=O)Nc3cc(Cl)cc(C(C)(C)c4ccc(Cl)cc4)c3)sc2cc1Cl` [Example 185, 6-chloro-N-(3-chloro-5-(2-(4-chlorophenyl)propan-2-yl)phenyl)-5-((2-methoxyethyl)sulfonamido)benzo[b]thiophene-2-carboxamide], the figures for the half-inhibitory concentration (IC50) in the test with DU-145, against STAT3 and with LNCaP were 0.007 µM, 0.007 µM and 0.072 µM, respectively.

For the compound `CC(C)(c1cc(Cl)cc(NC(=O)c2cc3cc(NS(C)(=O)=O)c(Cl)cc3s2)c1)c1ccc(C#N)s1` [Example 186, 6-chloro-N-(3-chloro-5-(2-(5-cyanothiophen-2-yl)propan-2-yl)phenyl)-5-(methylsulfonamido)benzo[b]thiophene-2-carboxamide], the values for the 50% inhibitory concentration (IC50) in the test with DU-145, on STAT3 and in the test on LNCaP were 0.023 µM, 0.1 µM and 0.039 µM, respectively.

`CCn1cccc1C(C)(C)c1cc(Cl)cc(NC(=O)c2cc3cc(NS(C)(=O)=O)ccc3s2)c1` [Example 187, N-(3-chloro-5-(2-(1-ethyl-1H-pyrrol-2-yl)propan-2-yl)phenyl)-5-(methylsulfonamido)benzo[b]thiophene-2-carboxamide]: the 50% inhibitory concentration (IC50) with DU-145 was 0.042 µM; at STAT3 it was 0.11 µM; in the test on LNCaP, 0.1 µM.

On to `CC(C)(c1ccc(Cl)cc1)c1cc(Cl)cc(NC(=O)c2cc3cc(NS(=O)(=O)CCO)c(Cl)cc3s2)c1` [Example 188, 6-chloro-N-(3-chloro-5-(2-(4-chlorophenyl)propan-2-yl)phenyl)-5-((2-hydroxyethyl)sulfonamido)benzo[b]thiophene-2-carboxamide], for which the half-maximal inhibitory concentration (IC50) with DU-145 is 0.026 µM; against STAT3, 0.054 µM; in the test on LNCaP, 0.056 µM.

On to `CC(C)(c1ccncc1)c1cc(Cl)cc(NC(=O)c2cc3cc(NS(C)(=O)=O)ccc3s2)c1` [Example 191, N-(3-chloro-5-(2-(pyridin-4-yl)propan-2-yl)phenyl)-5-(methylsulfonamido)benzo[b]thiophene-2-carboxamide], for which the half-inhibitory concentration (IC50) in the test with DU-145 stood at 0.74 µM; against STAT3 it was 0.54 µM; with LNCaP, 2.2 µM.

`CC(C)Oc1cc(OC(F)(F)F)cc(C(C)(C)c2cc(Cl)cc(NC(=O)c3cc4cc(OP(=O)(O)O)ccc4s3)c2)c1` [Example 193, 2-((3-chloro-5-(2-(3-isopropoxy-5-(trifluoromethoxy)phenyl)propan-2-yl)phenyl)carbamoyl)benzo[b]thiophen-5-yl dihydrogen phosphate]: the half-maximal inhibitory concentration (IC50) was 0.39 µM with DU-145, 0.38 µM against STAT3 and 0.99 µM in the test with LNCaP.

Regarding `CC(C)Oc1cc(OC(F)(F)F)cc(C(C)(C)c2cc(Cl)cc(NC(=O)c3cc4cc(NS(=O)(=O)CC5CCCO5)ccc4s3)c2)c1` (stereo not drawn) [Example 197, N-(3-chloro-5-(2-(3-isopropoxy-5-(trifluoromethoxy)phenyl)propan-2-yl)phenyl)-5-(((tetrahydrofuran-2-yl)methyl)sulfonamido)benzo[b]thiophene-2-carboxamide], the IC50 in the test with DU-145 worked out at 0.016 µM; at STAT3 it was 0.012 µM; with LNCaP, 0.065 µM.
